Source: patent EP1247803A2, “Indolinone compounds suitable for modulation of protein kinases” (Sugen, Inc., priority 1996, dated 1998)

Target: T1, EGFR (Homo sapiens, UniProt P00533)
T1 construct: Add 7 ug A431 cell lysate per well (EGFR source); endogenous in cells; host or cells: A431
Assay: EGFR ELISA assay (in vitro kinase activity, EGFR captured from A431 cell lysate)
Assay type: biochemical
Parameters: concentration or dose not given beside the values
In short: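 EGFR from A431 lysate was captured on plates coated with anti-EGFR antibody. Compounds were added 30 min before a 5 min phosphorylation with 3 µM ATP/5 mM MnCl2, which was stopped with 20 mM EDTA. Phosphotyrosine was detected with rabbit anti-phosphotyrosine, then a peroxidase-conjugated secondary and ABTS/H2O2, read at 410 nm.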

T1 sequence (P00533 25-1210): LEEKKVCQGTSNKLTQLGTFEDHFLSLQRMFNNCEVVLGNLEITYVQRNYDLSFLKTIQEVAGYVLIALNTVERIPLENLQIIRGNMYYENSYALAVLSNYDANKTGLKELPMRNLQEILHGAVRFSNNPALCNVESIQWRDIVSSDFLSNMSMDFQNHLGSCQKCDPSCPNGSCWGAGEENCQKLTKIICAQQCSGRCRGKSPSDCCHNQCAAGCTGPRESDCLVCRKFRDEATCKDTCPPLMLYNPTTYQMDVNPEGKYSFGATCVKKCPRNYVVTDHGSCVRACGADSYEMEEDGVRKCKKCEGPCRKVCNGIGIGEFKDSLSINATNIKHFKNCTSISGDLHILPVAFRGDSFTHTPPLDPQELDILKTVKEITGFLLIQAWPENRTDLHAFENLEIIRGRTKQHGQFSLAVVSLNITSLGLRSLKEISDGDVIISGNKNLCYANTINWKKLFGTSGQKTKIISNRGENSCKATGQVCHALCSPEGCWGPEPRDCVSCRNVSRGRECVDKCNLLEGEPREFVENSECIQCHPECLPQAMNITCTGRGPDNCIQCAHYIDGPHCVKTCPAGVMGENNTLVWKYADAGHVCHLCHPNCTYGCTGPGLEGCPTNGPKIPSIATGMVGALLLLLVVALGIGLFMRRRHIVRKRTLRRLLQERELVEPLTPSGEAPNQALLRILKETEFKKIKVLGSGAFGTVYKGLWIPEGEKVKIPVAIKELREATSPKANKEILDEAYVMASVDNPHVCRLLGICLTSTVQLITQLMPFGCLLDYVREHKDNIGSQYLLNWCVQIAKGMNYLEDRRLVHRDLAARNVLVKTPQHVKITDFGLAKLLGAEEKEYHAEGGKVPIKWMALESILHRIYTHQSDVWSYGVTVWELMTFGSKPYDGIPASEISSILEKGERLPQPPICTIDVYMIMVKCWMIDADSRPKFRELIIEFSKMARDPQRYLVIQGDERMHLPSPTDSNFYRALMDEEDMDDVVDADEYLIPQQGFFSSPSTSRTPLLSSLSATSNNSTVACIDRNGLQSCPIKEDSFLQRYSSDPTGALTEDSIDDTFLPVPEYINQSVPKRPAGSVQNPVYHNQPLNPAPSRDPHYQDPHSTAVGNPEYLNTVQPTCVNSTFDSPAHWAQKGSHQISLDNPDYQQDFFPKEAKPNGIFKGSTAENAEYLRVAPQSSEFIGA

| Compound | Biochem EGFR %Inhibition |
| --- | --- |
| O=C1Nc2ccc(CCCl)cc2C1=Cc1sccc1Br [10725/G02] | -20.5% |
| O=C1Nc2ccc(S(=O)(=O)Nc3ccc(C(F)(F)F)cc3)cc2C1=Cc1sccc1Br [10725/E02] | 4.3% |
